Experimental findings from patent EP0050799B1, “New processes for the production of di-alkyl esters and optically active mono-alkyl esters of 3-aminoglutaric acid” (ZAIDAN HOJIN BISEIBUTSU KAGAKU KENKYU KAI, priority 1980, dated 1982) are described below.

The subject of this experiment is Staphylococcus aureus. The experiment can be described thus: antibacterial activity test (minimum concentration inhibitory to growth). The experiment is classed as cell-based. As to conditions: for MIC: Staphylococcus aureus; for antibacterial activity against Gram-positive bacteria, particularly against Staphylococcus aureus: general statement in words.

Values after ≈ are worked out from the molar mass of the structure shown.

`CCOC(=O)C[C@@H](N)CC(=O)O` [Example 2, β-(S)-Aminoglutaric acid mono-ethyl ester]: the minimum inhibitory concentration (MIC) fell in the range of 20 to 100 µg/mL (≈ 114 to 571 µM) and the “antibacterial activity against Gram-positive bacteria, particularly against Staphylococcus aureus” value was “exhibit antibacterial activity”.
The like results for `COC(=O)C[C@H](N)CC(=O)O` [Example 4, β-(R)-aminoglutaric acid mono- methyl ester] were, in that order, 20 µg/mL (≈ 124 µM) and “exhibit an antibacterial activity”.
With `COC(=O)C[C@@H](N)CC(=O)O` [Example 1 (b), β-(S)-aminoglutaric acid mono-methyl ester], the MIC was in the range of 10 to 100 µg/mL (≈ 62.1 to 621 µM) and the “antibacterial activity against Gram-positive bacteria, particularly against Staphylococcus aureus” value is recorded as “exhibit antibacterial activity”.
Compound `CCOC(=O)C[C@H](N)CC(=O)O` [Example 7, β-(R)-Aminoglutaric acid mono-ethyl ester] registered an MIC of 30 to 100 µg/mL (≈ 171 to 571 µM).

A word on the MIC: it is the lowest concentration found to suppress growth.
